The record followed here is patent US20260364184A1, “COMPOUND BASED ON OXOISOINDOLINYL-SUBSTITUTED TETRAHYDROPYRIMIDINE-DIONE AND USE THEREOF” (GLUETACS THERAPEUTICS (SHANGHAI) CO., LTD., priority 2023, published 2026).

The target in this test is T1, IRAK4 (Homo sapiens, UniProt Q9NWZ3).
T1 construct: expression of target proteins in cells; endogenous in cells
T1 sequence (Q9NWZ3 1-460): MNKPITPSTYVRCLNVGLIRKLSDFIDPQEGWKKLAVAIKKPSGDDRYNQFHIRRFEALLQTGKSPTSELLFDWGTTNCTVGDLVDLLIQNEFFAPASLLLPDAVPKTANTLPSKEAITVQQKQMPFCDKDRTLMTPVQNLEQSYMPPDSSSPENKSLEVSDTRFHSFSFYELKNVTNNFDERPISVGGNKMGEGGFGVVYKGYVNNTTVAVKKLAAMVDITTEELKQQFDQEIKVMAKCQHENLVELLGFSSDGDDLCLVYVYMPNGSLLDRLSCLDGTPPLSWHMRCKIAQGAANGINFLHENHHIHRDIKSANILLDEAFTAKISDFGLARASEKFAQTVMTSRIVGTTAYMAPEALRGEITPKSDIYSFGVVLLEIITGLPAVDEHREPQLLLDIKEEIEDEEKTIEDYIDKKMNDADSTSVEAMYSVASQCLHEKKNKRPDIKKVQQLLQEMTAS
In words: Western blot degradation of IRAK4. It counts as cell-based. To be noted: hPBMC Cell; 24 hours. On the procedure:
Conventional Western blot assay was performed to evaluate the effects of the compounds of the present disclosure on the expression of target proteins in cells.
(1) Cell Seeding and Protein Harvesting: The selected cells were processed according to the cell seeding procedure and protein harvesting procedure in Table II-2.
(2) To the collected supernatant, 5×SDS sample loading buffer was added, followed by denaturation at 95 °C for 5 minutes. The denatured samples were then separated by SDS-PAGE electrophoresis on a polyacrylamide gel. Proteins were transferred to a nitrocellulose membrane (0.45 μm NC membrane), blocked with blocking buffer at room temperature for 1 hour, and subjected to antibody incubation and development procedures according to the antibody manufacturer's instructions (Cell Signaling Technology).
Half-Maximal Degradation Concentration value (the drug concentration required for degrading proteins by 50%, abbreviated as DC50) reads method: comparing the grayscale values of Western blot bands from drug-treated samples with those from blank DMSO-treated controls, and identifying the drug concentration range at which the grayscale value is half that of the DMSO-treated control bands.
DC50 values can be calculated using ImageJ software to measure grayscale values of Western blot bands from drug-treated samples. The concentration-response curve is fitted to estimate the drug concentration corresponding to half the grayscale value.
Target protein remaining (%) refers to the percentage of target protein remaining in cells after treatment with protein degrader compounds.
Calculation method for target protein remaining (%): Use ImageJ software to measure grayscale values of Western blot bands from drug (protein degrader)-treated samples. The grayscale value of drug-treated bands is divided by that of internal control protein bands, and the resulting quotient is normalized to obtain the relative percentage of remaining target protein after protein degrader treatment.
Target protein degradation rate (%)=1−target protein remaining (%).

Each structure is given as a SMILES string.

In the case of `COc1cc2nn([C@H]3CC[C@H](CN4CC5CCC4CN5c4ccc5c(c4)C(=O)N(N4CCC(=O)NC4=O)C5=O)CC3)cc2cc1NC(=O)c1cccc(C(F)(F)F)c1` (stereo partly drawn) [GT-08673, N-(2-((1r,4r)-4-((5-(2-(2,4-dioxotetrahydropyrimidin-1(2H)-yl)-1,3-dioxoisoindolin-5-yl)-2,5-diazabicyclo[2.2.2]octan-2-yl)methyl)cyclohexyl)-6-methoxy-2H-indazol-5-yl)-3-(trifluoromethyl)benzamide], the “Degradation of substrate protein IRAK4 (substrate protein remaining %)” value (shortened to “Degradation … (substrate protein remaining %)”) is “A (0%≤substrate protein remaining %≤80%)”.
Next, `COc1cc2nn([C@H]3CC[C@H](CN4C[C@@H]5C[C@H]4CN5c4ccc5c(c4)C(=O)N(N4CCC(=O)NC4=O)C5=O)CC3)cc2cc1NC(=O)c1cccc(C(F)(F)F)c1` [GT-08662, N-(2-((1S,4r)-4-(((1S,4S)-5-(2-(2,4-dioxotetrahydropyrimidin-1(2H)-yl)-1,3-dioxoisoindolin-5-yl)-2,5-diazabicyclo[2.2.1]heptan-2-yl)methyl)cyclohexyl)-6-methoxy-2H-indazol-5-yl)-3-(trifluoromethyl)benzamide]: “A (0%≤substrate protein remaining %≤80%)”.
`COc1cc2nn([C@H]3CC[C@H](CN4CCN(C5CCN(c6ccc7c(c6)C(=O)N(N6CCC(=O)NC6=O)C7=O)CC5)CC4)CC3)cc2cc1NC(=O)c1cccc(C(F)(F)F)n1` [GT-08658, N-(2-((1r,4r)-4-((4-(1-(2-(2,4-dioxotetrahydropyrimidin-1(2H)-yl)-1,3-dioxoisoindolin-5-yl)piperidin-4-yl)piperazin-1-yl)methyl)cyclohexyl)-6-methoxy-2H-indazol-5-yl)-6-(trifluoromethyl) picolinamide]: the “Degradation … (substrate protein remaining %)” value is reported as “A (0%≤substrate protein remaining %≤80%)”.
Next, `COc1cc2nn(C3CCN(CC4CCN(c5cccc6c5C(=O)N(N5CCC(=O)NC5=O)C6=O)CC4)CC3)cc2cc1NC(=O)c1cccc(C(F)(F)F)c1` [GT-05815, N-(2-(1-((1-(2-(2,4-dioxotetrahydropyrimidin-1(2H)-yl)-1,3-dioxoisoindolin-4-yl)piperidin-4-yl)methyl)piperidin-4-yl)-6-methoxy-2H-indazol-5-yl)-3-(trifluoromethyl)benzamide]: “A (0%≤substrate protein remaining %≤80%)”; `O=C1CCN(N2C(=O)c3ccc(N4CCC(N5CCN(C[C@H]6CC[C@H](n7cc(NC(=O)c8cnn9ccc(N%10C[C@H]%11C[C@@H]%10CO%11)nc89)c(C(F)F)n7)CC6)CC5)C(F)(F)C4)cc3C2=O)C(=O)N1` (stereo partly drawn) [GT-05123]: “A (0%≤substrate protein remaining %≤80%)”.
For `CC(C)(O)c1cc2nn(C3CCN(CC4CCN(c5cccc6c5C(=O)N(N5CCC(=O)NC5=O)C6=O)CC4)CC3)cc2cc1NC(=O)c1cccc(C(F)(F)F)n1` [GT-05221, N-(2-(1-((1-(2-(2,4-dioxotetrahydropyrimidin-1(2H)-yl)-1,3-dioxoisoindolin-4-yl)piperidin-4-yl)methyl)piperidin-4-yl)-6-(2-hydroxypropan-2-yl)-2H-indazol-5-yl)-6-(trifluoromethyl) picolinamide], the “Degradation … (substrate protein remaining %)” value is “A (0%≤substrate protein remaining %≤80%)”.
With `COc1cc2nn([C@H]3CC[C@H](CN4CCN(c5cc(F)c6c(c5)C(=O)N(N5CCC(=O)NC5=O)C6=O)CC4)CC3)cc2cc1NC(=O)c1cccc(C(F)(F)F)c1` [GT-08670, N-(2-((1r,4r)-4-((4-(2-(2,4-dioxotetrahydropyrimidin-1(2H)-yl)-7-fluoro-1,3-dioxoisoindolin-5-yl)piperazin-1-yl)methyl)cyclohexyl)-6-methoxy-2H-indazol-5-yl)-3-(trifluoromethyl)benzamide] the entry was “A (0%≤substrate protein remaining %≤80%)”; with `COc1cc2nn([C@H]3CC[C@H](CN4CC5CCC4CN5c4ccc5c(c4)C(=O)N(N4CCC(=O)NC4=O)C5=O)CC3)cc2cc1NC(=O)c1cccc(C(F)(F)F)n1` (stereo partly drawn) [GT-08660, N-(2-((1r,4r)-4-((5-(2-(2,4-dioxotetrahydropyrimidin-1(2H)-yl)-1,3-dioxoisoindolin-5-yl)-2,5-diazabicyclo[2.2.2]octan-2-yl)methyl)cyclohexyl)-6-methoxy-2H-indazol-5-yl)-6-(trifluoromethyl) picolinamide], “A (0%≤substrate protein remaining %≤80%)”.
With `CC(C)Nc1cc(-n2ccc3cc(C#N)cnc32)ncc1C(=O)NC1CCN(Cc2ccc3c(c2)C(=O)N(N2CCC(=O)NC2=O)C3=O)CC1` [GT-05326, 6-(5-cyano-1H-pyrrolo[2,3-b]pyridin-1-yl)-N-(1-((2-(2,4-dioxotetrahydropyrimidin-1(2H)-yl)-1,3-dioxoisoindolin-5-yl)methyl)piperidin-4-yl)-4-((isopropyl)amino) nicotinamide] the entry was “A (0%≤substrate protein remaining %≤80%)”.
With `COc1cc2nn([C@H]3CC[C@H](CN4C5CC4CN(c4ccc6c(c4)C(=O)N(N4CCC(=O)NC4=O)C6=O)C5)CC3)cc2cc1NC(=O)c1cccc(C(F)(F)F)c1` [GT-08666, N-(2-((1r,4r)-4-((3-(2-(2,4-dioxotetrahydropyrimidin-1(2H)-yl)-1,3-dioxoisoindolin-5-yl)-3,6-diazabicyclo[3.1.1]heptan-6-yl)methyl)cyclohexyl)-6-methoxy-2H-indazol-5-yl)-3-(trifluoromethyl)benzamide] the entry was “A (0%≤substrate protein remaining %≤80%)”.
For the molecule `COc1cc2nn(C3CCN(Cc4ccc5c(c4)C(=O)N(N4CCC(=O)NC4=O)C5=O)CC3)cc2cc1NC(=O)c1cccc(C(F)(F)F)c1` [GT-05078, N-(2-(1-((2-(2,4-dioxotetrahydropyrimidin-1(2H)-yl)-1,3-dioxoisoindolin-5-yl)methyl)piperidin-4-yl)-6-methoxy-2H-indazol-5-yl)-3-(trifluoromethyl)benzamide], the “Degradation … (substrate protein remaining %)” value is “A (0%≤substrate protein remaining %≤80%)”.
With `O=C1CCN(N2C(=O)c3ccc(N4C5CCC4CN(C[C@H]4CC[C@H](n6cc(NC(=O)c7cnn8ccc(N9C[C@H]%10C[C@@H]9CO%10)nc78)c(C(F)F)n6)CC4)C5)cc3C2=O)C(=O)N1` [GT-05240, 5-((1R,4R)-2-oxa-5-azabicyclo[2.2.1]heptan-5-yl)-N-(3-(difluoromethyl)-1-((1r,4R)-4-((8-(2-(2,4-dioxotetrahydropyrimidin-1(2H)-yl)-1,3-dioxoisoindolin-5-yl)-3,8-diazabicyclo[3.2.1]octan-3-yl)methyl)cyclohexyl)-1H-pyrazol-4-yl)pyrazolo[1,5-a]pyrimidine-3-carboxamide] the entry was “A (0%≤substrate protein remaining %≤80%)”.
In the case of `COc1cc2nn([C@H]3CC[C@H](CN4CCN(c5ccc6c(c5F)C(=O)N(N5CCC(=O)NC5=O)C6=O)CC4)CC3)cc2cc1NC(=O)c1cccc(C(F)(F)F)n1` [GT-08656, N-(2-((1r,4r)-4-((4-(2-(2,4-dioxotetrahydropyrimidin-1(2H)-yl)-4-fluoro-1,3-dioxoisoindolin-5-yl)piperazin-1-yl)methyl)cyclohexyl)-6-methoxy-2H-indazol-5-yl)-6-(trifluoromethyl) picolinamide], the “Degradation … (substrate protein remaining %)” value is “A (0%≤substrate protein remaining %≤80%)”.
Next, `O=C1CCN(N2C(=O)c3ccc(N4CCC(CN5CCC(n6cc(NC(=O)c7cnn8ccc(N9C[C@H]%10C[C@@H]9CO%10)nc78)c(C(F)F)n6)CC5)CC4)cc3C2=O)C(=O)N1` [GT-05056, 5-((1R,4R)-2-oxa-5-azabicyclo[2.2.1]heptan-5-yl)-N-(3-(difluoromethyl)-1-(1-((1-(2-(2,4-dioxotetrahydropyrimidin-1(2H)-yl)-1,3-dioxoisoindolin-5-yl)piperidin-4-yl)methyl)piperidin-4-yl)-1H-pyrazol-4-yl)pyrazolo[1,5-a]pyrimidine-3-carboxamide]: “A (0%≤substrate protein remaining %≤80%)”; `COc1cc2nn([C@H]3CC[C@H](CN4CCN(C5CCN(c6ccc7c(c6)C(=O)N(N6CCC(=O)NC6=O)C7=O)CC5(F)F)CC4)CC3)cc2cc1NC(=O)c1cccc(C(F)(F)F)c1` (stereo partly drawn) [GT-08672, N-(2-((1r,4r)-4-((4-(1-(2-(2,4-dioxotetrahydropyrimidin-1(2H)-yl)-1,3-dioxoisoindolin-5-yl)-3,3-difluoropiperidin-4-yl)piperazin-1-yl)methyl)cyclohexyl)-6-methoxy-2H-indazol-5-yl)-3-(trifluoromethyl)benzamide]: “A (0%≤substrate protein remaining %≤80%)”.
